{"source": "ChEMBL document CHEMBL4602644", "about": "“Synthesis of PJOV56, a new quinoxalinyl-hydrazone derivative able to induce autophagy and apoptosis in colorectal cancer cells, and related compounds” (Bioorg Med Chem Lett, 2020)", "key": {"HL-60": {"system": "HL-60", "assay": "Cytotoxicity against human HL60 cells assessed as cell growth inhibition at 5 ug/ml measured after 72 hrs by MTT assay relative to control", "format": "functional", "conditions": "HL-60, 72 h, read-out: GI"}, "HCT-116 [1]": {"system": "HCT-116", "assay": "Cytotoxicity against human HCT116 cells assessed as cell growth inhibition at 5 ug/ml measured after 72 hrs by MTT assay relative to control", "format": "functional", "conditions": "HCT-116, 72 h, read-out: GI"}, "OVCAR-8": {"system": "OVCAR-8", "assay": "Cytotoxicity against human OVCAR8 cells assessed as cell growth inhibition at 5 ug/ml measured after 72 hrs by MTT assay relative to control", "format": "functional", "conditions": "OVCAR-8, 72 h, read-out: GI"}, "SF-295": {"system": "SF-295", "assay": "Cytotoxicity against human SF295 cells assessed as reduction in cell viability measured after 72 hrs by MTT assay", "format": "functional, cell-based", "conditions": "SF-295, 72 h"}, "L929": {"system": "L929", "assay": "Cytotoxicity against mouse L929 cells assessed as reduction in cell viability measured after 72 hrs by MTT assay", "format": "cell-based", "conditions": "L929, 72 h"}, "HCT-116 [2]": {"system": "HCT-116", "assay": "Induction of morphological changes in human HCT116 cells assessed as bleb formation at 0.2 uM measured after 48 hrs by propidium iodide staining based flow cytometry", "format": "functional, cell-based"}, "HCT-116 [3]": {"system": "HCT-116", "assay": "Induction of morphological changes in human HCT116 cells assessed as cell pyknosis at 0.2 uM measured after 48 hrs by propidium iodide staining based flow cytometry", "format": "functional"}, "HCT-116 [4]": {"system": "HCT-116", "assay": "Induction of DNA fragmentation in human HCT116 cells at 0.2 uM measured after 48 hrs by propidium iodide staining based flow cytometry relative to control", "format": "functional"}, "HCT-116 [5]": {"system": "HCT-116", "assay": "Cell cycle arrest in human HCT116 cells assessed as accumulation at G0/G1 phase at 0.2 uM measured after 48 hrs by propidium iodide staining based flow cytometry (reference value: 41.67 %)", "format": "functional"}, "HCT-116 [6]": {"system": "HCT-116", "assay": "Cell cycle arrest in human HCT116 cells assessed as accumulation at S phase at 0.2 uM measured after 48 hrs by propidium iodide staining based flow cytometry (reference value: 33.29 %)", "format": "functional"}, "HCT-116 [7]": {"system": "HCT-116", "assay": "Cell cycle arrest in human HCT116 cells assessed as accumulation at G2/M phase at 0.2 uM measured after 48 hrs by propidium iodide staining based flow cytometry (reference value: 24.98 %)", "format": "functional"}, "HCT-116 [8]": {"system": "HCT-116", "assay": "Cell cycle arrest in human HCT116 cells assessed as accumulation at G0/G1 phase at 0.1 uM measured after 48 hrs by propidium iodide staining based flow cytometry (reference value: 41.67 %)", "format": "functional"}, "HCT-116 [9]": {"system": "HCT-116", "assay": "Cell cycle arrest in human HCT116 cells assessed as accumulation at S phase at 0.1 uM measured after 48 hrs by propidium iodide staining based flow cytometry (reference value: 33.29 %)", "format": "functional"}, "HCT-116 [10]": {"system": "HCT-116", "assay": "Cell cycle arrest in human HCT116 cells assessed as accumulation at G2/M phase at 0.1 uM measured after 48 hrs by propidium iodide staining based flow cytometry (reference value: 24.98 %)", "format": "functional"}}, "note": "Activity calls are given as the source filed them. The calls are words filed in the database; no cut-off is given here."}
{"smiles": "C(=N\\Nc1cnc2ccccc2n1)/c1cccs1", "values": [{"measurement": "inhibition of growth at 5 µg/mL", "setting": "HL-60", "value": 19.7, "unit": "%"}, {"measurement": "inhibition of growth at 5 µg/mL", "setting": "HCT-116 [1]", "value": 21, "unit": "%"}, {"measurement": "inhibition of growth at 5 µg/mL", "setting": "OVCAR-8", "value": 0, "unit": "%"}]}
{"smiles": "C(=N\\Nc1cnc2ccccc2n1)/c1cccnc1", "values": [{"measurement": "inhibition of growth at 5 µg/mL", "setting": "HL-60", "value": 0, "unit": "%"}, {"measurement": "inhibition of growth at 5 µg/mL", "setting": "HCT-116 [1]", "value": 18.8, "unit": "%"}, {"measurement": "inhibition of growth at 5 µg/mL", "setting": "OVCAR-8", "value": 10.2, "unit": "%"}]}
{"smiles": "COc1cccc2c1C(=O)c1c(O)c3c(c(O)c1C2=O)C[C@@](O)(C(=O)CO)C[C@@H]3O[C@H]1C[C@H](N)[C@H](O)[C@H](C)O1", "note": "[DOXORUBICIN]", "values": [{"measurement": "IC50", "setting": "SF-295", "value": 250, "unit": "nM"}, {"measurement": "IC50", "setting": "L929", "value": 660, "unit": "nM"}, {"measurement": "Activity", "setting": "HCT-116 [2]", "value": "Active"}, {"measurement": "Activity", "setting": "HCT-116 [3]", "value": "Active"}, {"measurement": "Activity", "setting": "HCT-116 [4]", "value": 6.02, "unit": "%"}, {"measurement": "Activity", "setting": "HCT-116 [5]", "value": 16.48, "unit": "%"}, {"measurement": "Activity", "setting": "HCT-116 [6]", "value": 22.72, "unit": "%"}, {"measurement": "Activity", "setting": "HCT-116 [7]", "value": 60.53, "unit": "%"}]}
{"smiles": "C(=N\\Nc1cnc2ccccc2n1)/c1cnc[nH]1", "values": [{"measurement": "inhibition of growth at 5 µg/mL", "setting": "HL-60", "value": 98.8, "unit": "%"}, {"measurement": "inhibition of growth at 5 µg/mL", "setting": "HCT-116 [1]", "value": 77.2, "unit": "%"}, {"measurement": "inhibition of growth at 5 µg/mL", "setting": "OVCAR-8", "value": 57.4, "unit": "%"}]}
{"smiles": "O=[N+]([O-])c1ccc(/C=N/Nc2cnc3ccccc3n2)o1", "values": [{"measurement": "inhibition of growth at 5 µg/mL", "setting": "HL-60", "value": 12.2, "unit": "%"}, {"measurement": "inhibition of growth at 5 µg/mL", "setting": "HCT-116 [1]", "value": 27.1, "unit": "%"}, {"measurement": "inhibition of growth at 5 µg/mL", "setting": "OVCAR-8", "value": 3.95, "unit": "%"}]}
{"smiles": "C(=N\\Nc1cnc2ccccc2n1)/c1ccco1", "values": [{"measurement": "inhibition of growth at 5 µg/mL", "setting": "HL-60", "value": 0, "unit": "%"}, {"measurement": "inhibition of growth at 5 µg/mL", "setting": "HCT-116 [1]", "value": 9.01, "unit": "%"}, {"measurement": "inhibition of growth at 5 µg/mL", "setting": "OVCAR-8", "value": 3.56, "unit": "%"}]}
{"smiles": "O=[N+]([O-])c1ccc(/C=N/Nc2cnc3ccccc3n2)s1", "values": [{"measurement": "inhibition of growth at 5 µg/mL", "setting": "HL-60", "value": 0, "unit": "%"}, {"measurement": "inhibition of growth at 5 µg/mL", "setting": "HCT-116 [1]", "value": 0.03, "unit": "%"}, {"measurement": "inhibition of growth at 5 µg/mL", "setting": "OVCAR-8", "value": 0, "unit": "%"}]}
{"smiles": "C(=N\\Nc1cnc2ccccc2n1)/c1ccc[nH]1", "values": [{"measurement": "inhibition of growth at 5 µg/mL", "setting": "HL-60", "value": 96.3, "unit": "%"}, {"measurement": "inhibition of growth at 5 µg/mL", "setting": "HCT-116 [1]", "value": 54.3, "unit": "%"}, {"measurement": "inhibition of growth at 5 µg/mL", "setting": "OVCAR-8", "value": 52.3, "unit": "%"}]}
{"smiles": "C(=N\\Nc1cnc2ccccc2n1)/c1ccncc1", "values": [{"measurement": "inhibition of growth at 5 µg/mL", "setting": "HL-60", "value": 0, "unit": "%"}, {"measurement": "inhibition of growth at 5 µg/mL", "setting": "HCT-116 [1]", "value": 33.7, "unit": "%"}, {"measurement": "inhibition of growth at 5 µg/mL", "setting": "OVCAR-8", "value": 14.9, "unit": "%"}]}
{"smiles": "CC(=O)O[C@H]1C(=O)[C@@]2(C)[C@H]([C@H](OC(=O)c3ccccc3)[C@]3(O)C[C@H](OC(=O)[C@H](O)[C@@H](NC(=O)c4ccccc4)c4ccccc4)C(C)=C1C3(C)C)[C@]1(OC(C)=O)CO[C@@H]1C[C@@H]2O", "note": "[PACLITAXEL]", "values": [{"measurement": "Activity", "setting": "HCT-116 [8]", "value": 13.83, "unit": "%"}, {"measurement": "Activity", "setting": "HCT-116 [9]", "value": 25.09, "unit": "%"}, {"measurement": "Activity", "setting": "HCT-116 [10]", "value": 61.69, "unit": "%"}]}
